Test results from patent publication US20220177511A1, “SERIES OF HALOGENATED TETRACYCLIC TRITERPENE DERIVATIVES AND THEIR PREPARATION AND APPLICATION” (SHANGHAI KING-X BIOTECH CO., LTD, priority 2019, published 2022).
Converted amounts (≈) assume the structure as drawn.

How the values were obtained:
[1] = Solubility test in water and FaSSIF; format: physicochemical; settings: 37° C., up to 24 hours
[2] = Pharmacokinetics of parent HHQ16 after single intragastric administration of compound 2 prodrugs in rats; format: in vivo, rat; settings: HHQ16 (parent) measured in rats after single intragastric 10 mg/kg of prodrug (dose converted to HHQ16)
Protocol: 1. The materials and methods for oral absorption test are the same as described in example 44.
The pharmacokinetic parameters of HHQ16 measured after a single intragastric administration of 10 mg/kg of compound 2 prodrug in rats are summarized in Table 2 below.
The half-life was prolonged to varying degrees.

[3] = Metabolic stability in human liver microsomes; format: in vitro ADME; settings: 5 μM compound, 1 mg/mL microsomes, 37° C.
Protocol: Preparation of the test sample: Compound 1 (prepared in Example 5), 2 (prepared in Example 4), and 5 (cycloastragenol, purchased from Chengdu Jintaihe Company) were dissolved with an appropriate amount of DMSO to obtain a concentration of 10 mM solution.
1) The compound was diluted with DMSO to 0.5 mM, and diluted to 1/20 with PBS before the experiment.
2) Human liver microsomes and potassium phosphate buffer were added to the EP tube respectively and mixed by gentle shaking.
3) Pre-incubate the EP tube in a metal bath at 37° C. for 5 minutes. 4) Compound 1, 2 or 5 were added and incubated at 37° C.
5) Take 100 μl of sample from the tube at 0, 60, 120, 240, and 360 minutes respectively, and add the sample to the stop tube (containing 100 μl of cooled acetonitrile solution). The mixture was shaken vigorously to terminate the reaction and then placed it in a −30° C. refrigerator until analysis.
6) Centrifuge at 14300 r/min and 4° C. for 10 minutes, aspirate the supernatant and place it in a −30° C. refrigerator until analysis.
Column: Shim-pack XR-ODS II, 2.0×75 mm; mobile phase: mobile phase B: aqueous solution containing 0.2% formic acid; mobile phase A: acetonitrile solution; mobile phase ratio: […]

[4] = test system: C57 mouse CHF model; assay: In vivo efficacy on chronic heart failure in mice (coronary artery ligation, echocardiography), enalapril control; settings: positive control 2 mg/kg, p<0.0001 (FIG. 6)
Protocol: C57 mouse coronary artery ligation method was used in this experiment to prepare the mouse CHF model. The differences in echocardiography, hemodynamics and histopathology of the model were observed after administration. Test substance: compound 2. Solvent: 0.3% sodium carboxymethyl cellulose. Dosage: 1 mg/kg, 3 mg/kg, 10 mg/kg, 30 mg/kg and 100 mg/kg. Route of administration: intragastric. Control drug: enalapril 2 mg/kg. Strain: C57 mouse; Age: 7 weeks; Weight: 18-20 g; Gender: Male; Grade: SPF C57 mouse CHF model was established by coronary artery ligation method in this experiment. The differences in echocardiography, hemodynamics and histopathology of the model were observed after administration. 5 dose groups were set for compound 2 in this experiment. Enalapril was selected as the positive control. Once daily for 28 consecutive days. The doses for each group was 1 mg/kg, 3 mg/kg, 10 mg/kg, 30 mg/kg and 100 mg/kg. Positive control group: Enalapril (2 mg/kg) was administered after CHF was established. The mice were anesthetized in a box filled with isoflurane. After the mice were anesthetized, the left 4th intercostal space was opened to expose the left atrial appendage and left ventricle. It can be seen that the left coronary artery runs downward from the middle of the left atrial appendage to the anterior wall of the left ventricle. The coronary artery is sutured at a high position about 1 mm from the lower border of the left atrial appendage. After ligation, the myocardium gradually changes from fleshy red to pale white, indicating myocardial infarction. The model is successfully established, and the chest is closed layer by layer. After the spontaneous breathing of the mice recovered, the mice were caged and reared in a day-night cycle with free access to water and food. After being reared for 30 days, the chronic heart failure model was detected by echocardiography, and the mice with successful chronic heart failure model were selected. Qualified CHF mice screened by echocardiography were randomly grouped. Mice were given compound 2 by intragastric administration once daily for 28 consecutive days. The body weight of mice was measured every week, and echocardiography was performed after 28 days of administration. After the […] anesthetized, 1 mm^3 tissue was taken from the hearts of 3 mice in each group, fixed with electron microscope fixative, and detected by transmission electron microscope to observe the ultrastructure of the heart. All remaining heart tissues were fixed with 10% formaldehyde, and stained with HE for histopathology to observe histopathological changes.

Row | Metabolic half-life of human liver microsomes [3] | SMILES | Solubility ([1]; FaSSIF (pH 6.5)) | Solubility ([1]; Water) | AUC0-t [2] | Cmax [2] | t1/2 [2] | Cardiac output per minute (CO), day 28 vs day 0 [4]
1 | – | CC(C)(O)[C@@H]1CC[C@@](C)([C@H]2[C@@H](O)C[C@@]3(C)[C@@H]4C[C@H](OC(=O)C[C@H]5CCCN5)[C@H]5C(C)(C)C(F)(F)CC[C@@]56C[C@@]46CC[C@]23C)O1.Cl [Compound 2-3, (R)-2-(2-(((2aR,3R,4S,5aS,5bS,7S,7aR,11aR,12aS)-9,9-difluoro-4-hydroxy-3-((2S,5S)-5-(2-hydroxypropan-2-yl)-2-methyltetrahydrofuran-2-yl)-2a,5a,8,8-tetramethyltetradecahydro-1H,12H-cyclopenta[a]cyclopropa[e]phenanthren-7-yl)oxy)-2-oxoethyl)pyrrolidin-1-ium Chloride] | 1800 µg/mL | 950 µg/mL | 3200 ng·h/mL | 460 ng/mL | 3.98 h | –
2 | – | Br.CC(C)(O)C1CCC(C)(C2C(O)CC3(C)C4CC(OC(=O)CN)C5C(C)(C)C(F)(F)CCC56CC46CCC23C)O1 [Compound 2-16, 2-(((2aR,3R,4S,5aS,5bS,7S,7aR,11aR,12aS)-9,9-difluoro-4-hydroxy-3-((2S,5S)-5-(2-hydroxypropan-2-yl)-2-methyltetrahydrofuran-2-yl)-2a,5a,8,8-tetramethyltetradecahydro-1H,12H-cyclopenta[a]cyclopropa[e]phenanthren-7-yl)oxy)-2-oxoethan-1-aminium Bromide] | 5300 µg/mL | 950 µg/mL | 4623 ng·h/mL | 510 ng/mL | 5.2 h | –
3 | – | CC(C)(O)[C@@H]1CC[C@@](C)([C@H]2[C@@H](O)C[C@@]3(C)[C@@H]4C[C@H](OC(=O)[C@@H](N)CO)[C@H]5C(C)(C)C(F)(F)CC[C@@]56C[C@@]46CC[C@]23C)O1.Cl [Compound 2-19, (S)-1-(((2aR,3R,4S,5aS,5bS,7S,7aR,11aR,12aS)-9,9-difluoro-4-hydroxy-3-((2S,5S)-5-(2-hydroxypropan-2-yl)-2-methyltetrahydrofuran-2-yl)-2a,5a,8,8-tetramethyltetradecahydro-1H,12H-cyclopenta[a]cyclopropa[e]phenanthren-7-yl)oxy)-3-hydroxy-1-oxopropan-2-aminium chloride] | 3980 µg/mL | 1240 µg/mL | 4400 ng·h/mL | 602 ng/mL | 3.5 h | –
4 | – | CC(O)C(N)C(=O)OC1CC2C3(C)CC(O)C(C4(C)CCC(C(C)(C)O)O4)C3(C)CCC23CC32CCC(F)(F)C(C)(C)C12.Cl [Compound 2-20, (2S,3S)-1-(((2aR,3R,4S,5aS,5bS,7S,7aR,11aR,12aS)-9,9-difluoro-4-hydroxy-3-((2S,5S)-5-(2-hydroxypropan-2-yl)-2-methyltetrahydrofuran-2-yl)-2a,5a,8,8-tetramethyltetradecahydro-1H,12H-cyclopenta[a]cyclopropa[e]phenanthren-7-yl)oxy)-3-hydroxy-1-oxobutan-2-aminium Chloride] | 2800 µg/mL | 1200 µg/mL | 4005 ng·h/mL | 582 ng/mL | 3.6 h | –
5 | – | CC(C)(O)[C@@H]1CC[C@@](C)([C@H]2[C@@H](O)C[C@@]3(C)[C@@H]4C[C@H](OC(=O)CNC(=O)CN)[C@H]5C(C)(C)C(F)(F)CC[C@@]56C[C@@]46CC[C@]23C)O1.Cl [Compound 2-27, 2-((2-(((2aR,3R,4S,5aS,5bS,7S,7aR,11aR,12aS)-9,9-difluoro-4-hydroxy-3-((2S,5S)-5-(2-hydroxypropan-2-yl)-2-methyltetrahydrofuran-2-yl)-2a,5a,8,8-tetramethyltetradecahydro-1H,12H-cyclopenta[a]cyclopropa[e]phenanthren-7-yl)oxy)-2-oxoethyl)amino)-2-oxoethan-1-aminium Chloride] | 4300 µg/mL | 1300 µg/mL | 3005 ng·h/mL | 358 ng/mL | 7.5 h | –
6 | – | CN(CC(=O)OC1CC2C3(C)CC(O)C(C4(C)CCC(C(C)(C)O)O4)C3(C)CCC23CC32CCC(F)(F)C(C)(C)C12)C(=O)C(N)Cc1ccccc1.Cl [Compound 2-28, (R)-1-((2-(((2aR,3R,4S,5aS,5bS,7S,7aR,11aR,12aS)-9,9-difluoro-4-hydroxy-3-((2S,5S)-5-(2-hydroxypropan-2-yl)-2-methyltetrahydrofuran-2-yl)-2a,5a,8,8-tetramethyltetradecahydro-1H,12H-cyclopenta[a]cyclopropa[e]phenanthren-7-yl)oxy)-2-oxoethyl)(methyl)amino)-1-oxo-3-phenylpropan-2-aminium Chloride] | 2850 µg/mL | 650 µg/mL | 4332 ng·h/mL | 475 ng/mL | 6.2 h | –
7 | – | CC(N)C(=O)N(C)CC(=O)OC1CC2C3(C)CC(O)C(C4(C)CCC(C(C)(C)O)O4)C3(C)CCC23CC32CCC(F)(F)C(C)(C)C12.Cl [Compound 2-29, (S)-1-((2-(((2aR,3R,4S,5aS,5bS,7S,7aR,11aR,12aS)-9,9-difluoro-4-hydroxy-3-((2S,5S)-5-(2-hydroxypropan-2-yl)-2-methyltetrahydrofuran-2-yl)-2a,5a,8,8-tetramethyltetradecahydro-1H,12H-cyclopenta[a]cyclopropa[e]phenanthren-7-yl)oxy)-2-oxoethyl)(methyl)amino)-1-oxopropan-2-aminium Chloride] | 3130 µg/mL | 950 µg/mL | 5221 ng·h/mL | 605 ng/mL | 5.6 h | –
8 | – | CC(C)(O)[C@@H]1CC[C@@](C)([C@H]2[C@@H](O)C[C@@]3(C)[C@@H]4C[C@H](OC(=O)CNC(=O)[C@@H](N)CO)[C@H]5C(C)(C)C(F)(F)CC[C@@]56C[C@@]46CC[C@]23C)O1.Cl [Compound 2-31, (S)-1-((2-(((2aR,3R,4S,5aS,5bS,7S,7aR,11aR,12aS)-9,9-difluoro-4-hydroxy-3-((2S,5S)-5-(2-hydroxypropan-2-yl)-2-methyltetrahydrofuran-2-yl)-2a,5a,8,8-tetramethyltetradecahydro-1H,12H-cyclopenta[a]cyclopropa[e]phenanthren-7-yl)oxy)-2-oxoethyl)amino)-3-hydroxy-1-oxopropan-2-aminium Chloride] | 6250 µg/mL | 1650 µg/mL | 3888 ng·h/mL | 403 ng/mL | 4.5 h | –
9 | 0.308 h | CC(C)(O)[C@@H]1CC[C@](C)([C@H]2[C@@H](O)C[C@@]3(C)[C@@H]4C[C@H](O)[C@H]5C(C)(C)[C@@H](O)CC[C@@]56C[C@@]46CC[C@]23C)O1 [Compound 5, (2aR,3R,4S,5aS,5bS,7S,7aR,9S,11aR,12aS)-3-((2S,5S)-5-(2-hydroxypropan-2-yl)-2-methyltetrahydrofuran-2-yl)-2a,5a,8,8-tetramethyltetradecahydro-1H,12H-cyclopenta[a]cyclopropa[e]phenanthrene-4,7,9-triol, reference compound] | 49 µg/mL (≈ 99.9 µM) | 8 µg/mL (≈ 16.3 µM) | – | – | – | –
10 | – | CCOC(=O)[C@H](CCc1ccccc1)N[C@@H](C)C(=O)N1CCC[C@H]1C(=O)O [Enalapril, reference compound] | – | – | – | – | – | very significant increase
